According to patent publication US11331369B2, “Endoparasitic depsipeptides” (Zoetis Services LLC, priority 2017, dated 2022):

system: microfilariae of Dirofilaria immitis; test: Dirofilaria immitis, Microfilaria (DiMF) In vitro Assay; assay type: cell-based; details: 72 h, read-out: DiMF Minimum Effective Dose (MED), approximately 72 hours incubation, microfilariae assessed for survival or paralysis

SMILES | minimal effective concentration
CC(C)C[C@H]1C(=O)O[C@H](Cc2ccc(Cn3cc(OC4COC4)cn3)cc2)C(=O)N(C)[C@@H](CC(C)C)C(=O)O[C@H](C)C(=O)N(C)[C@@H](CC(C)C)C(=O)O[C@H](Cc2ccc(Cn3cc(OC4COC4)cn3)cc2)C(=O)N(C)[C@@H](CC(C)C)C(=O)O[C@H](C)C(=O)N1C [Example 1b-142, (3S,6R,9S,12R,15S,18R,21S,24R)-3,9,15,21-tetraisobutyl-4,6,10,16,18,22-hexamethyl-12,24-bis(4-((4-(oxetan-3-yloxy)-1H-pyrazol-1-yl)methyl)benzyl)-1,7,13,19-tetraoxa-4,10,16,22-tetraazacyclotetracosan-2,5,8,11,14,17,20,23-octaone] | 0.001 to 0.01 µM
CC(C)C[C@H]1C(=O)O[C@H](Cc2ccc(Cn3nccc3N)cc2)C(=O)N(C)[C@@H](CC(C)C)C(=O)O[C@H](C)C(=O)N(C)[C@@H](CC(C)C)C(=O)O[C@H](Cc2ccc(Cn3nccc3N)cc2)C(=O)N(C)[C@@H](CC(C)C)C(=O)O[C@H](C)C(=O)N1C [Example 1b-144, (3S,6R,9S,12R,15S,18R,21S,24R)-6,18-bis(4-((5-amino-1H-pyrazol-1-yl)methyl)benzyl)-3,9,15,21-tetraisobutyl-4,10,12,16,22,24-hexamethyl-1,7,13,19-tetraoxa-4,10,16,22-tetraazacyclotetracosan-2,5,8,11,14,17,20,23-octaone] | 0.01 to 0.1 µM
CC(C)C[C@H]1C(=O)O[C@H](Cc2ccc(Cn3ccc(OC(F)F)n3)cc2)C(=O)N(C)[C@@H](CC(C)C)C(=O)O[C@H](C)C(=O)N(C)[C@@H](CC(C)C)C(=O)O[C@H](Cc2ccc(Cn3ccc(OC(F)F)n3)cc2)C(=O)N(C)[C@@H](CC(C)C)C(=O)O[C@H](C)C(=O)N1C [Example 1b-156, (3S,6R,9S,12R,15S,18R,21S,24R)-6,18-bis(4-((3-(difluoromethoxy)-1H-pyrazol-1-yl)methyl)benzyl)-3,9,15,21-tetraisobutyl-4,10,12,16,22,24-hexamethyl-1,7,13,19-tetraoxa-4,10,16,22-tetraazacyclotetracosan-2,5,8,11,14,17,20,23-octaone] | 0.01 to 0.1 µM
CCOc1cc(C)n(Cc2ccc(C[C@H]3OC(=O)[C@H](CC(C)C)N(C)C(=O)[C@@H](C)OC(=O)[C@H](CC(C)C)N(C)C(=O)[C@@H](Cc4ccc(Cn5nc(OCC)cc5C)cc4)OC(=O)[C@H](CC(C)C)N(C)C(=O)[C@@H](C)OC(=O)[C@H](CC(C)C)N(C)C3=O)cc2)n1 [Example 1b-159, (3S,6R,9S,12R,15S,18R,21S,24R)-6,18-bis(4-((3-ethoxy-5-methyl-1H-pyrazol-1-yl)methyl)benzyl)-3,9,15,21-tetraisobutyl-4,10,12,16,22,24-hexamethyl-1,7,13,19-tetraoxa-4,10,16,22-tetraazacyclotetracosan-2,5,8,11,14,17,20,23-octaone] | 0.01 to 0.1 µM
CC(C)C[C@H]1C(=O)O[C@H](Cc2ccc(Cn3cc(CO)c(C(F)(F)F)n3)cc2)C(=O)N(C)[C@@H](CC(C)C)C(=O)O[C@H](C)C(=O)N(C)[C@@H](CC(C)C)C(=O)O[C@H](Cc2ccc(Cn3cc(CO)c(C(F)(F)F)n3)cc2)C(=O)N(C)[C@@H](CC(C)C)C(=O)O[C@H](C)C(=O)N1C [Example 1b-162, (3S,6R,9S,12R,15S,18R,21S,24R)-6,18-bis(4-((4-(hydroxymethyl)-3-(trifluoromethyl)-1H-pyrazol-1-yl)methyl)benzyl)-3,9,15,21-tetraisobutyl-4,10,12,16,22,24-hexamethyl-1,7,13,19-tetraoxa-4,10,16,22-tetraazacyclotetracosan-2,5,8,11,14,17,20,23-octaone] | 0.01 to 0.1 µM
CCOc1cc(C)nn1Cc1ccc(C[C@H]2OC(=O)[C@H](CC(C)C)N(C)C(=O)[C@@H](C)OC(=O)[C@H](CC(C)C)N(C)C(=O)[C@@H](Cc3ccc(Cn4nc(C)cc4OCC)cc3)OC(=O)[C@H](CC(C)C)N(C)C(=O)[C@@H](C)OC(=O)[C@H](CC(C)C)N(C)C2=O)cc1 [Example 1b-163, (3S,6R,9S,12R,15S,18R,21S,24R)-6,18-bis(4-((5-ethoxy-3-methyl-1H-pyrazol-1-yl)methyl)benzyl)-3,9,15,21-tetraisobutyl-4,10,12,16,22,24-hexamethyl-1,7,13,19-tetraoxa-4,10,16,22-tetraazacyclotetracosan-2,5,8,11,14,17,20,23-octaone] | 0.01 to 0.1 µM
CCOc1cc(CC)nn1Cc1ccc(C[C@H]2OC(=O)[C@H](CC(C)C)N(C)C(=O)[C@@H](C)OC(=O)[C@H](CC(C)C)N(C)C(=O)[C@@H](Cc3ccc(Cn4nc(CC)cc4OCC)cc3)OC(=O)[C@H](CC(C)C)N(C)C(=O)[C@@H](C)OC(=O)[C@H](CC(C)C)N(C)C2=O)cc1 [Example 1b-169, (3S,6R,9S,12R,15S,18R,21S,24R)-6,18-bis(4-((5-ethoxy-3-ethyl-1H-pyrazol-1-yl)methyl)benzyl)-3,9,15,21-tetraisobutyl-4,10,12,16,22,24-hexamethyl-1,7,13,19-tetraoxa-4,10,16,22-tetraazacyclotetracosan-2,5,8,11,14,17,20,23-octaone] | 0.01 to 0.1 µM
CCOc1cc(C2CC2)nn1Cc1ccc(C[C@H]2OC(=O)[C@H](CC(C)C)N(C)C(=O)[C@@H](C)OC(=O)[C@H](CC(C)C)N(C)C(=O)[C@@H](Cc3ccc(Cn4nc(C5CC5)cc4OCC)cc3)OC(=O)[C@H](CC(C)C)N(C)C(=O)[C@@H](C)OC(=O)[C@H](CC(C)C)N(C)C2=O)cc1 [Example 1b-170, (3S,6R,9S,12R,15S,18R,21S,24R)-6,18-bis(4-((3-cyclopropyl-5-ethoxy-1H-pyrazol-1-yl)methyl)benzyl)-3,9,15,21-tetraisobutyl-4,10,12,16,22,24-hexamethyl-1,7,13,19-tetraoxa-4,10,16,22-tetraazacyclotetracosan-2,5,8,11,14,17,20,23-octaone] | 0.01 to 0.1 µM
CC(C)C[C@H]1C(=O)O[C@H](Cc2ccc(Cn3cc(N4CCCCC4)cn3)cc2)C(=O)N(C)[C@@H](CC(C)C)C(=O)O[C@H](C)C(=O)N(C)[C@@H](CC(C)C)C(=O)O[C@H](Cc2ccc(Cn3cc(N4CCCCC4)cn3)cc2)C(=O)N(C)[C@@H](CC(C)C)C(=O)O[C@H](C)C(=O)N1C [Example 1b-183, (3S,6R,9S,12R,15S,18R,21S,24R)-3,9,15,21-tetraisobutyl-4,6,10,16,18,22-hexamethyl-12,24-bis(4-((4-(piperidin-1-yl)-1H-pyrazol-1-yl)methyl)benzyl)-1,7,13,19-tetraoxa-4,10,16,22-tetraazacyclotetracosan-2,5,8,11,14,17,20,23-octaone] | 0.01 to 0.1 µM
CC(C)C[C@H]1C(=O)O[C@H](Cc2ccc(Cn3cc(OCCN)cn3)cc2)C(=O)N(C)[C@@H](CC(C)C)C(=O)O[C@H](C)C(=O)N(C)[C@@H](CC(C)C)C(=O)O[C@H](Cc2ccc(Cn3cc(OCCN)cn3)cc2)C(=O)N(C)[C@@H](CC(C)C)C(=O)O[C@H](C)C(=O)N1C [Example 1b-185, (3S,6R,9S,12R,15S,18R,21S,24R)-6,18-bis(4-((4-(2-aminoethoxy)-1H-pyrazol-1-yl)methyl)benzyl)-3,9,15,21-tetraisobutyl-4,10,12,16,22,24-hexamethyl-1,7,13,19-tetraoxa-4,10,16,22-tetraazacyclotetracosan-2,5,8,11,14,17,20,23-octaone] | 0.01 to 0.1 µM
Cc1nn(Cc2ccc(C[C@H]3OC(=O)[C@H](CC(C)C)N(C)C(=O)[C@@H](C)OC(=O)[C@H](CC(C)C)N(C)C(=O)[C@@H](Cc4ccc(Cn5nc(C)c(OC(C)C)c5C)cc4)OC(=O)[C@H](CC(C)C)N(C)C(=O)[C@@H](C)OC(=O)[C@H](CC(C)C)N(C)C3=O)cc2)c(C)c1OC(C)C [Example 1b-188, (3S,6R,9S,12R,15S,18R,21S,24R)-3,9,15,21-tetraisobutyl-6,18-bis(4-((4-isopropoxy-3,5-dimethyl-1H-pyrazol-1-yl)methyl)benzyl)-4,10,12,16,22,24-hexamethyl-1,7,13,19-tetraoxa-4,10,16,22-tetraazacyclotetracosan-2,5,8,11,14,17,20,23-octaone] | 0.01 to 0.1 µM
CCOc1c(C)nn(Cc2ccc(C[C@H]3OC(=O)[C@H](CC(C)C)N(C)C(=O)[C@@H](C)OC(=O)[C@H](CC(C)C)N(C)C(=O)[C@@H](Cc4ccc(Cn5nc(C)c(OCC)c5C)cc4)OC(=O)[C@H](CC(C)C)N(C)C(=O)[C@@H](C)OC(=O)[C@H](CC(C)C)N(C)C3=O)cc2)c1C [Example 1b-191, (3S,6R,9S,12R,15S,18R,21S,24R)-6,18-bis(4-((4-ethoxy-3,5-dimethyl-1H-pyrazol-1-yl)methyl)benzyl)-3,9,15,21-tetraisobutyl-4,10,12,16,22,24-hexamethyl-1,7,13,19-tetraoxa-4,10,16,22-tetraazacyclotetracosan-2,5,8,11,14,17,20,23-octaone] | 0.01 to 0.1 µM
CC(C)C[C@H]1C(=O)O[C@H](Cc2ccc(Cn3ccc(-c4cnccn4)n3)cc2)C(=O)N(C)[C@@H](CC(C)C)C(=O)O[C@H](C)C(=O)N(C)[C@@H](CC(C)C)C(=O)O[C@H](Cc2ccc(Cn3ccc(-c4cnccn4)n3)cc2)C(=O)N(C)[C@@H](CC(C)C)C(=O)O[C@H](C)C(=O)N1C [Example 1b-195, (3S,6R,9S,12R,15S,18R,21S,24R)-3,9,15,21-tetraisobutyl-4,6,10,16,18,22-hexamethyl-12,24-bis[[4-[(3-pyrazin-2-ylpyrazol-1-yl)methyl]phenyl]methyl]-1,7,13,19-tetraoxa-4,10,16,22-tetrazacyclotetracosane-2,5,8,11,14,17,20,23-octaone] | 0.01 to 0.1 µM
CCOc1cn(Cc2ccc(C[C@H]3OC(=O)[C@H](CC(C)C)N(C)C(=O)[C@@H](C)OC(=O)[C@H](CC(C)C)N(C)C(=O)[C@@H](Cc4ccc(Cn5cc(OCC)c(C)n5)cc4)OC(=O)[C@H](CC(C)C)N(C)C(=O)[C@@H](C)OC(=O)[C@H](CC(C)C)N(C)C3=O)cc2)nc1C [Example 1b-198, (3S,6R,9S,12R,15S,18R,21S,24R)-6,18-bis[[4-[(4-ethoxy-3-methyl-pyrazol-1-yl)methyl]phenyl]methyl]-3,9,15,21-tetraisobutyl-4,10,12,16,22,24-hexamethyl-1,7,13,19-tetraoxa-4,10,16,22-tetrazacyclotetracosane-2,5,8,11,14,17,20,23-octaone] | 0.01 to 0.1 µM
